This is an account of results in ChEMBL document CHEMBL2429792, “2D QSAR of heteroaryl-substituted propanolamines as antihypertensive agents” (2013).

Molecules are shown by their SMILES.

This experiment is filed under the species Rattus norvegicus. The experiment in a line: Antihypertensive activity in rat assessed as inhibition of isoproterenol-induced tachycardia. Format: functional.
`CC(=O)c1ccc(C(=O)NCCNCC(O)COc2cccc3c2OCCO3)cc1` (stereo unspecified): the log1/activity is on record as 6.31. As to `O=C(NCCNCC(O)COc1ccccc1I)c1ccco1` (stereo unspecified), the log1/activity was 5.27. On to `N#Cc1ccccc1OCC(O)CNCCNC(=O)c1cc2ccccc2[nH]1` (stereo unspecified), for which the log1/activity was found to be 4.57. Then `NC(=O)c1ccccc1OCC(O)CNCCNC(=O)c1cccs1` (stereo unspecified), with 4.78; and `CC(C)C(=O)NCCNCC(O)COc1nccs1` (stereo unspecified), with 5.91; and `CC(=O)Nc1ccc(OCC(O)CNC(C)C)cc1` (stereo unspecified) [PRACTOLOL], with 5.72.

As to `O=C(NCCNCC(O)COc1ccccc1)c1ccco1` (stereo unspecified), the log1/activity came to 5.48. Then `O=C(NCCNCC(O)COc1ccccc1)c1cc2ccccc2[nH]1` (stereo unspecified), with 4.54; and `O=C(NCCNCC(O)COc1ccccc1)c1cccs1` (stereo unspecified), with 5.92; and `Cc1cc(C(=O)NCCNCC(O)COc2ccccc2C#N)[nH]n1` (stereo unspecified), with 4.78.

Regarding `CNC(=O)Nc1ccc(C(=O)NCCNCC(O)COc2cccc3c2OCCO3)cc1` (stereo unspecified), the log1/activity is on record as 7.34. As for `O=C(NCCNCC(O)COc1cccc2ccccc12)c1ccco1` (stereo unspecified), the log1/activity stood at 4.73. As for `O=C(NCCNCC(O)COc1cccc2c1OCCO2)c1ccc(O)cc1` (stereo unspecified), the log1/activity is 6.41.

On to `COc1cc(CC(=O)NCCNCC(O)COc2ccccc2C#N)nc(-c2ccc(Cl)cc2)n1` (stereo unspecified), for which the log1/activity was determined as 4.69. Then `O=C(NCCNCC(O)COc1ccccc1O)C1CCCO1` (stereo unspecified), with 5.16; and `N#Cc1ccccc1OCC(O)CNCCNC(=O)Cc1c[nH]c2ccccc12` (stereo unspecified), with 6.44; and `N#Cc1ccccc1OCC(O)CNCCNC(=O)Cc1csc(-c2ccc(Cl)cc2)n1` (stereo unspecified), with 4.89. Then `O=C(NCCNCC(O)COc1cccc2c1OCCC2=O)Nc1ccccc1` (stereo unspecified), with 4.83. For the compound `O=C(NCCNCC(O)COc1ccccc1)c1ccncc1` (stereo unspecified), the log1/activity was determined as 5.79. For the compound `Cc1ccccc1OCC(O)CNCCNC(=O)c1ccco1` (stereo unspecified), the log1/activity is on record as 5.38. `CC(C)C(=O)NCCNCC(O)COc1cccc2[nH]ccc12` (stereo unspecified): the log1/activity was 7.2. `Nc1ccc(C(=O)NCCNCC(O)COc2cccc3c2OCCO3)cc1` (stereo unspecified): the log1/activity turned out to be 5.5. On to `C=CCOc1ccccc1OCC(O)CNCCNC(=O)c1ccco1` (stereo unspecified), for which the log1/activity was 5.07. On to `Cc1cccc(OCC(O)CNCCNC(=O)c2ccco2)c1` (stereo unspecified), for which the log1/activity is recorded as 4.9.

Regarding `CC(C)C(=O)NCCNCC(O)COc1nsnc1N1CCOCC1` (stereo unspecified), the log1/activity is on record as 6.34. Then `O=C(NCCNCC(O)COc1cccc2occc12)Nc1ccccc1` (stereo unspecified), with 5.56. As for `O=C(Cc1ccccc1)NCCNCC(O)COc1cccc2c1OCCO2` (stereo unspecified), the log1/activity is 5.41. Consider `CC(C)NCC(O)COc1cccc2ccccc12` (stereo unspecified) [PROPRANOLOL], for which the log1/activity was found to be 6.11. As for `CC(C)C(=O)NCCNCC(O)COc1cccc2nsnc12` (stereo unspecified), the log1/activity was found to be 4.52. Consider `CC(C)C(=O)NCCNCC(O)COc1cccc2sccc12` (stereo unspecified), for which the log1/activity came out at 5.82.

For the compound `O=C(NCCNCC(O)COc1cccc2sccc12)Nc1ccccc1` (stereo unspecified), the log1/activity is on record as 4.88. For `COc1ccc2c(O)cc(CC(=O)NCCNCC(O)COc3ccccc3C#N)nc2c1` (stereo unspecified), the log1/activity is reported as 6.65. Then `N#Cc1ccccc1OCC(O)CNCCNC(=O)c1ccc2ccccc2n1` (stereo unspecified), with 4.59; and `N#Cc1ccccc1OCC(O)CNCCNC(=O)c1ccco1` (stereo unspecified), with 4.73. Then `N#Cc1ccccc1OCC(O)CNCCNC(=O)Cc1cccs1` (stereo unspecified), with 6.95. Consider `O=C(NCCNCC(O)COc1cccc2c1OCCO2)Nc1ccccc1` (stereo unspecified), for which the log1/activity came to 4.58.
